Results reported in ChEMBL document CHEMBL1130810, “Potent, selective benzenesulfonamide agonists of the human beta 3 adrenergic receptor” (Bioorg Med Chem Lett, 1998).

These compounds were tested against T1, Beta-1 adrenergic receptor (Homo sapiens, UniProt P08588) (assay: (§1) Compound was tested for agonist activity against cloned human beta-1 adrenergic receptor).
T1 sequence (P08588 whole entry): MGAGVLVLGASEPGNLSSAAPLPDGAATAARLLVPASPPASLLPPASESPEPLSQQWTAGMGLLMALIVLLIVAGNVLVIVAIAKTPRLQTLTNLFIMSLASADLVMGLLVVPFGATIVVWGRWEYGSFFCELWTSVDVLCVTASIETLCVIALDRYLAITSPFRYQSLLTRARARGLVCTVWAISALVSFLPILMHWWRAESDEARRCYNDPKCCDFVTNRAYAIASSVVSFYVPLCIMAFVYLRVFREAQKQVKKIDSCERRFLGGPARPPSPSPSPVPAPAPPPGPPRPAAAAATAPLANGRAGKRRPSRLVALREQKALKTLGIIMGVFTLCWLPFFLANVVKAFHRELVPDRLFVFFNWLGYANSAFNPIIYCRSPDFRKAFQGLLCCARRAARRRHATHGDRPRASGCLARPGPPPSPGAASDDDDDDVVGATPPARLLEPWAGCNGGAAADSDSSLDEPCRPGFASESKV

Row | SMILES | EC50 [nM]
1 | O=S(=O)(Nc1ccc(CCNC[C@H](O)COc2ccc(O)cc2)cc1)c1cnc2ccccc2c1 | 300

Each compound was assayed against T2, Beta-2 adrenergic receptor (Homo sapiens, UniProt P07550) (assay: Agonist activity against cloned human beta-2 adrenergic receptor as percent activation of adenyl cyclase activity at a concentration of 1000 nM).
Assay type: functional
Target sequence in this assay (P07550 whole entry, looked up): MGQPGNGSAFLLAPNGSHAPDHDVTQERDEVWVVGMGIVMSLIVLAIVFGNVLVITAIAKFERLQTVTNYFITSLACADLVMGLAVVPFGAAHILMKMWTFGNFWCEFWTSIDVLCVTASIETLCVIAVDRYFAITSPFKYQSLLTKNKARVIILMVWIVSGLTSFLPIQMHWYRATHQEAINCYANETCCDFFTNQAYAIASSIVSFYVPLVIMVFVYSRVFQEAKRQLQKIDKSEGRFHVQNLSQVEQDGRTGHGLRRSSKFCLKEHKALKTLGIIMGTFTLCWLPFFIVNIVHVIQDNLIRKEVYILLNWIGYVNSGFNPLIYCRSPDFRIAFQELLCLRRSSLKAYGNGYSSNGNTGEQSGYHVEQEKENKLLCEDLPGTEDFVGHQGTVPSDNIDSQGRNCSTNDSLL

Row | Activity [%] | SMILES
2 | 2 | O=S(=O)(Nc1ccc(CCNC[C@H](O)COc2ccc(O)cc2)cc1)c1ccccc1Cl

These compounds were tested against T2, Beta-2 adrenergic receptor (assay: Compound was tested for agonist activity against cloned human beta-2 adrenergic receptor at a concentration of 1000 nM).
Assay type: functional
Target sequence in this assay (P07550 whole entry, looked up): as above

Row | Max stimulation [%] | SMILES
3 | 4 | CCCS(=O)(=O)Nc1ccc(CCNC[C@H](O)COc2ccc(O)cc2)cc1

Each compound was assayed against T1, Beta-1 adrenergic receptor (assay: as §1).
Assay type: functional

Row | SMILES | EC50 [nM] | IC50 [nM]
4 | O=S(=O)(Nc1ccc(CCNC[C@H](O)COc2ccc(O)cc2)cc1)C1CCCCC1 | 1200 | –
5 | COc1ccc(CCCNC[C@H](O)COc2ccc(O)cc2)cc1 | – | 15

More lines, now with the values ahead:

Row | EC50 [nM] | IC50 [nM] | SMILES
6 | 450 | – | O=S(=O)(Nc1ccc(CCNC[C@H](O)COc2ccc(O)cc2)cc1)c1ccc(Cl)cc1
7 | 340 | – | O=S(=O)(Nc1ccc(CCNC[C@H](O)COc2ccc(O)cc2)cc1)c1ccc(Br)cc1

What follows are compounds tested against T2, Beta-2 adrenergic receptor (assay: biochemical).
Target sequence in this assay (P07550 whole entry): as the sequence (P07550 whole entry, looked up) above
Description: Binding affinity against cloned human beta-2 adrenergic receptor from CHO cells using [125I]iodocyanopindolol as the radioligand

Row | SMILES | IC50 [nM]
8 | O=S(=O)(CCc1ccccc1)Nc1ccc(CCNC[C@H](O)COc2ccc(O)cc2)cc1 | 120
9 | COc1ccc(CC[C@H](C)NC[C@H](O)COc2ccc(O)cc2)cc1 | 20
10 | CC(=O)Nc1ccc(CCNC[C@H](O)COc2ccc(O)cc2)cc1 | 11
11 | C[C@@H](Cc1ccc(O)cc1)NC[C@H](O)COc1ccc(O)cc1 | 84
12 | O=S(=O)(Cc1ccccc1)Nc1ccc(CCNC[C@H](O)COc2ccc(O)cc2)cc1 | 21
13 | O=S(=O)(Nc1ccc(CCNC[C@H](O)COc2ccc(O)cc2)cc1)C1CCCCC1 | 3000
14 | COc1ccc(CCCNC[C@H](O)COc2ccc(O)cc2)cc1 | 63
15 | CCCCCS(=O)(=O)Nc1ccc(CCNC[C@H](O)COc2ccc(O)cc2)cc1 | 250
16 | O=S(=O)(CCCc1ccccc1)Nc1ccc(CCNC[C@H](O)COc2ccc(O)cc2)cc1 | 130
17 | CS(=O)(=O)Nc1ccc(CCNC[C@H](O)COc2ccc(O)cc2)cc1 | 220
18 | O=S(=O)(Nc1ccc(CCNC[C@H](O)COc2ccc(O)cc2)cc1)c1ccc2ccccc2c1 | 630
19 | Nc1ccc(CCNC[C@H](O)COc2ccc(O)cc2)cc1 | 500
20 | O=S(=O)(Nc1ccc(CCNC[C@H](O)COc2ccc(O)cc2)cc1)c1cnc2ccccc2c1 | 240

Further lines, results first:

Row | IC50 [nM] | SMILES
21 | 230 | O=C(Nc1ccc(CCNC[C@H](O)COc2ccc(O)cc2)cc1)c1ccccc1
22 | 500 | CCCS(=O)(=O)Nc1ccc(CCNC[C@H](O)COc2ccc(O)cc2)cc1
23 | 3000 | O=S(=O)(Nc1ccc(CCNC[C@H](O)COc2ccc(O)cc2)cc1)c1ccc(Cl)c(Cl)c1
24 | 100 | O=S(=O)(Nc1ccc(CCNC[C@H](O)COc2ccc(O)cc2)cc1)c1ccccc1Cl
25 | 150 | Oc1ccc(CCNC[C@H](O)COc2ccc(O)cc2)cc1
26 | 58 | CC(C)S(=O)(=O)Nc1ccc(CCNC[C@H](O)COc2ccc(O)cc2)cc1
27 | 370 | O=S(=O)(Nc1ccc(CCNC[C@H](O)COc2ccc(O)cc2)cc1)c1cccc(Cl)c1
28 | 10 | C[C@@H](CCc1ccc(O)cc1)NC[C@H](O)COc1ccc(O)cc1
29 | 190 | O=S(=O)(Nc1ccc(CCNC[C@H](O)COc2ccc(O)cc2)cc1)c1ccccc1
30 | 280 | O=S(=O)(Nc1ccc(CCNC[C@H](O)COc2ccc(O)cc2)cc1)c1ccc(Cl)cc1
31 | 190 | COc1ccc(S(=O)(=O)Nc2ccc(CCNC[C@H](O)COc3ccc(O)cc3)cc2)cc1
32 | 170 | Cc1ccc(S(=O)(=O)Nc2ccc(CCNC[C@H](O)COc3ccc(O)cc3)cc2)cc1
33 | 180 | O=S(=O)(Nc1ccc(CCNC[C@H](O)COc2ccc(O)cc2)cc1)c1ccc(Br)cc1

What follows are compounds tested against T1, Beta-1 adrenergic receptor (assay: Tested for binding affinity against cloned human beta-1 adrenergic receptor from CHO cells using [125I]iodocyanopindolol as the radioligand.).
Assay type: cell-based

Row | SMILES | IC50 [nM]
34 | O=S(=O)(Nc1ccc(CCNC[C@H](O)COc2ccc(O)cc2)cc1)c1ccc2ccccc2c1 | 9000
35 | O=S(=O)(Nc1ccc(CCNC[C@H](O)COc2ccc(O)cc2)cc1)c1cnc2ccccc2c1 | 500

Other lines, results leading:

Row | IC50 [nM] | SMILES
36 | 1000 | O=S(=O)(Nc1ccc(CCNC[C@H](O)COc2ccc(O)cc2)cc1)c1cccc(Cl)c1
37 | 1000 | O=S(=O)(Nc1ccc(CCNC[C@H](O)COc2ccc(O)cc2)cc1)c1ccc(Cl)cc1
38 | 140 | COc1ccc(S(=O)(=O)Nc2ccc(CCNC[C@H](O)COc3ccc(O)cc3)cc2)cc1
39 | 150 | Cc1ccc(S(=O)(=O)Nc2ccc(CCNC[C@H](O)COc3ccc(O)cc3)cc2)cc1

Each compound was assayed against Beta-3 adrenergic receptor (Homo sapiens, UniProt P13945) (assay: Agonist activity against cloned human beta-3 adrenergic receptor).
Assay type: functional

Sequence of Beta-3 adrenergic receptor (P13945 whole entry): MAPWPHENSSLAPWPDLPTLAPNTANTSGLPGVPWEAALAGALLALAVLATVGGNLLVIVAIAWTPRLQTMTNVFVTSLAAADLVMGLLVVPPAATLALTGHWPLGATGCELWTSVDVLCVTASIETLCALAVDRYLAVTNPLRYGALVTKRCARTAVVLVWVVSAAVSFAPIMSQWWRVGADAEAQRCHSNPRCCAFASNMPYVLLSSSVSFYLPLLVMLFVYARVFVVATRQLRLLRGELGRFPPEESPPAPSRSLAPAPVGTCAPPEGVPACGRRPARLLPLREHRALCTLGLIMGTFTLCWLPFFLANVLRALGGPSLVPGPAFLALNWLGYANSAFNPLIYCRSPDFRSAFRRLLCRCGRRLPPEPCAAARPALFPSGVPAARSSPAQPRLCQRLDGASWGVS

Row | SMILES | EC50 [nM]
40 | COc1ccc(CC[C@H](C)NC[C@@H](O)COc2ccc(O)cc2)cc1 | 2000
41 | O=S(=O)(CCc1ccccc1)Nc1ccc(CCNC[C@H](O)COc2ccc(O)cc2)cc1 | 5.9
42 | COc1ccc(CC[C@H](C)NC[C@H](O)COc2ccc(O)cc2)cc1 | 200
43 | COc1ccc(CC[C@@H](C)NC[C@H](O)COc2ccc(O)cc2)cc1 | 600
44 | CC(=O)Nc1ccc(CCNC[C@H](O)COc2ccc(O)cc2)cc1 | 27
45 | C[C@@H](Cc1ccc(O)cc1)NC[C@H](O)COc1ccc(O)cc1 | 25
46 | O=S(=O)(Cc1ccccc1)Nc1ccc(CCNC[C@H](O)COc2ccc(O)cc2)cc1 | 39
47 | O=S(=O)(Nc1ccc(CCNC[C@H](O)COc2ccc(O)cc2)cc1)C1CCCCC1 | 1500
48 | COc1ccc(CCCNC[C@H](O)COc2ccc(O)cc2)cc1 | 600
49 | CCCCCS(=O)(=O)Nc1ccc(CCNC[C@H](O)COc2ccc(O)cc2)cc1 | 4000
50 | COc1ccc(CC[C@@H](C)NC[C@@H](O)COc2ccc(O)cc2)cc1 | 6000
51 | O=S(=O)(CCCc1ccccc1)Nc1ccc(CCNC[C@H](O)COc2ccc(O)cc2)cc1 | 92
52 | COc1ccc(C[C@H](C)NC[C@H](O)COc2ccc(O)cc2)cc1 | 1000
53 | CS(=O)(=O)Nc1ccc(CCNC[C@H](O)COc2ccc(O)cc2)cc1 | 110
54 | O=S(=O)(Nc1ccc(CCNC[C@H](O)COc2ccc(O)cc2)cc1)c1ccc2ccccc2c1 | 5.4
55 | Nc1ccc(CCNC[C@H](O)COc2ccc(O)cc2)cc1 | 440

Second part, the compound after the results:

Row | EC50 [nM] | SMILES
56 | 62 | O=C(Nc1ccc(CCNC[C@H](O)COc2ccc(O)cc2)cc1)c1ccccc1
57 | 60 | CCCS(=O)(=O)Nc1ccc(CCNC[C@H](O)COc2ccc(O)cc2)cc1
58 | 58 | O=S(=O)(Nc1ccc(CCNC[C@H](O)COc2ccc(O)cc2)cc1)c1ccc(Cl)c(Cl)c1
59 | 54 | O=S(=O)(Nc1ccc(CCNC[C@H](O)COc2ccc(O)cc2)cc1)c1ccccc1Cl
60 | 30 | Oc1ccc(CCNC[C@H](O)COc2ccc(O)cc2)cc1
61 | 25 | CC(C)S(=O)(=O)Nc1ccc(CCNC[C@H](O)COc2ccc(O)cc2)cc1
62 | 15 | O=S(=O)(Nc1ccc(CCNC[C@H](O)COc2ccc(O)cc2)cc1)c1cccc(Cl)c1
63 | 12 | C[C@@H](CCc1ccc(O)cc1)NC[C@H](O)COc1ccc(O)cc1
64 | 6.3 | O=S(=O)(Nc1ccc(CCNC[C@H](O)COc2ccc(O)cc2)cc1)c1ccccc1
65 | 4.8 | O=S(=O)(Nc1ccc(CCNC[C@H](O)COc2ccc(O)cc2)cc1)c1ccc(Cl)cc1
66 | 4.3 | COc1ccc(S(=O)(=O)Nc2ccc(CCNC[C@H](O)COc3ccc(O)cc3)cc2)cc1
67 | 2.6 | Cc1ccc(S(=O)(=O)Nc2ccc(CCNC[C@H](O)COc3ccc(O)cc3)cc2)cc1
68 | 0.77 | O=S(=O)(Nc1ccc(CCNC[C@H](O)COc2ccc(O)cc2)cc1)c1ccc(Br)cc1

What follows are compounds tested against T1, Beta-1 adrenergic receptor (assay: biochemical).

Row | SMILES | IC50 [nM]
69 | O=S(=O)(CCc1ccccc1)Nc1ccc(CCNC[C@H](O)COc2ccc(O)cc2)cc1 | 110
70 | CC(=O)Nc1ccc(CCNC[C@H](O)COc2ccc(O)cc2)cc1 | 25
71 | C[C@@H](Cc1ccc(O)cc1)NC[C@H](O)COc1ccc(O)cc1 | 81
72 | O=S(=O)(Cc1ccccc1)Nc1ccc(CCNC[C@H](O)COc2ccc(O)cc2)cc1 | 60
73 | O=S(=O)(Nc1ccc(CCNC[C@H](O)COc2ccc(O)cc2)cc1)C1CCCCC1 | 2000
74 | CCCCCS(=O)(=O)Nc1ccc(CCNC[C@H](O)COc2ccc(O)cc2)cc1 | 1000
75 | O=S(=O)(CCCc1ccccc1)Nc1ccc(CCNC[C@H](O)COc2ccc(O)cc2)cc1 | 1000
76 | CS(=O)(=O)Nc1ccc(CCNC[C@H](O)COc2ccc(O)cc2)cc1 | 830
77 | Nc1ccc(CCNC[C@H](O)COc2ccc(O)cc2)cc1 | 1000

Further lines, results first:

Row | IC50 [nM] | SMILES
78 | 6.7 | O=C(Nc1ccc(CCNC[C@H](O)COc2ccc(O)cc2)cc1)c1ccccc1
79 | 1000 | CCCS(=O)(=O)Nc1ccc(CCNC[C@H](O)COc2ccc(O)cc2)cc1
80 | > 10000 | O=S(=O)(Nc1ccc(CCNC[C@H](O)COc2ccc(O)cc2)cc1)c1ccc(Cl)c(Cl)c1
81 | 610 | O=S(=O)(Nc1ccc(CCNC[C@H](O)COc2ccc(O)cc2)cc1)c1ccccc1Cl
82 | 900 | Oc1ccc(CCNC[C@H](O)COc2ccc(O)cc2)cc1
83 | 100 | CC(C)S(=O)(=O)Nc1ccc(CCNC[C@H](O)COc2ccc(O)cc2)cc1
84 | 15 | C[C@@H](CCc1ccc(O)cc1)NC[C@H](O)COc1ccc(O)cc1
85 | 180 | O=S(=O)(Nc1ccc(CCNC[C@H](O)COc2ccc(O)cc2)cc1)c1ccccc1
86 | 510 | O=S(=O)(Nc1ccc(CCNC[C@H](O)COc2ccc(O)cc2)cc1)c1ccc(Br)cc1

Each compound was assayed against T1, Beta-1 adrenergic receptor (assay: Compound was tested for binding affinity against cloned human beta-1 adrenergic receptor from CHO cells using [125I]-iodocyanopindolol as radioligand).
Assay type: cell-based

Row | IC50 [nM] | SMILES
87 | 10 | COc1ccc(CC[C@H](C)NC[C@H](O)COc2ccc(O)cc2)cc1

The compounds below were run against T2, Beta-2 adrenergic receptor (assay: Compound was tested for agonist activity against cloned human beta-2 adrenergic receptor).
Assay type: functional
Target sequence in this assay (P07550 whole entry): as the sequence (P07550 whole entry, looked up) above

Row | EC50 [nM] | SMILES
88 | 5 | COc1ccc(CC[C@@H](C)NC[C@H](O)COc2ccc(O)cc2)cc1
89 | 30 | COc1ccc(CC[C@@H](C)NC[C@@H](O)COc2ccc(O)cc2)cc1
